Data as given in PubChem BioAssay (NCI).
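GI50 = concentration required for 50% inhibition of growth. TGI denotes the concentration required for complete inhibition of growth.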

Experiments:
Experiment in all cases: NCI tumour cell line growth inhibition, 384-well format; in the data active = GI50 below about 0.43 µM; inactive = the rest
[1] = test system: MOLT-4 leukemia
[2] = test system: NCI/ADR-RES ovarian
[3] = test system: NCI-H226 lung
[4] = test system: NCI-H322M lung
[5] = test system: MDA-MB-231 breast
[6] = test system: LOX IMVI melanoma
[7] = test system: SK-MEL-2 melanoma
[8] = test system: UO-31 renal
[9] = test system: SNB-75 CNS
[10] = test system: T-47D breast
[11] = test system: CCRF-CEM leukemia
[12] = test system: HT29 colon
[13] = test system: RXF 393 renal
[14] = test system: 786-0 renal
[15] = test system: NCI-H522 lung
[16] = test system: SF-268 CNS
[17] = test system: HCC-2998 colon
[18] = test system: TK-10 renal
[19] = test system: SR leukemia
[20] = test system: COLO 205 colon
[21] = test system: K-562 leukemia
[22] = test system: A549 NSCLC
[23] = test system: UACC-62 melanoma
[24] = test system: SK-MEL-5 melanoma
[25] = test system: NCI-H23 lung
[26] = test system: OVCAR-5 ovarian
[27] = test system: DU-145 prostate
[28] = test system: HOP-62 NSCLC
[29] = test system: A498 renal
[30] = test system: HCT-116 colon
[31] = test system: MALME-3M melanoma
[32] = test system: UACC-257 melanoma
[33] = test system: SW-620 colon
[34] = test system: M14 melanoma
[35] = test system: OVCAR-4 ovarian
[36] = test system: MDA-MB-468 breast
[37] = test system: RPMI-8226 leukemia
[38] = test system: HS 578T breast
[39] = test system: EKVX NSCLC
[40] = test system: SF-539 CNS
[41] = test system: HCT-15 colon
[42] = test system: SK-MEL-28 melanoma
[43] = test system: BT-549 breast
[44] = test system: MDA-MB-435 melanoma
[45] = test system: SN12C renal
[46] = test system: SNB-19 CNS
[47] = test system: IGROV1 ovarian

C[C@H](N)C(=O)N1C[C@H](CCCB(O)O)[C@](N)(C(=O)O)C1
> 100 µM: TGI [1] | TGI [2] | TGI [3] | TGI [4] | TGI [5] | TGI [6] | TGI [7] | TGI [8] | TGI [9] | TGI [10] | TGI [11] | TGI [12] | TGI [13] | TGI [14] | TGI [15] | TGI [16] | TGI [17] | TGI [18] | TGI [19] | TGI [20] | TGI [21] | TGI [22] | TGI [23] | TGI [24] | TGI [25] | TGI [26] | TGI [27] | TGI [28] | TGI [29] | TGI [30] | TGI [31] | TGI [32] | TGI [33] | TGI [34] | TGI [35] | TGI [36] | TGI [37] | TGI [38] | TGI [39] | TGI [40] | TGI [41] | TGI [42] | TGI [43] | TGI [44] | TGI [45] | TGI [46] | TGI [47]
inactive: GI50 [1] > 100 µM | GI50 [2] > 100 µM | GI50 [3] > 100 µM | GI50 [4] > 100 µM | GI50 [5] > 100 µM | GI50 [6] > 100 µM | GI50 [7] > 100 µM | GI50 [8] > 100 µM | GI50 [9] > 100 µM | GI50 [10] > 100 µM | GI50 [11] > 100 µM | GI50 [12] > 100 µM | GI50 [13] > 100 µM | GI50 [14] > 100 µM | GI50 [15] > 100 µM | GI50 [16] > 100 µM | GI50 [17] > 100 µM | GI50 [18] > 100 µM | GI50 [19] > 100 µM | GI50 [20] > 92 µM | GI50 [21] > 100 µM | GI50 [22] > 100 µM | GI50 [23] > 100 µM | GI50 [24] > 100 µM | GI50 [25] > 100 µM | GI50 [26] > 100 µM | GI50 [27] > 100 µM | GI50 [28] > 100 µM | GI50 [29] > 100 µM | GI50 [30] > 100 µM | GI50 [31] > 100 µM | GI50 [32] > 100 µM | GI50 [33] > 100 µM | GI50 [34] > 86 µM | GI50 [35] > 100 µM | GI50 [36] > 100 µM | GI50 [37] > 100 µM | GI50 [38] > 100 µM | GI50 [39] > 100 µM | GI50 [40] > 100 µM | GI50 [41] > 100 µM | GI50 [42] > 100 µM | GI50 [43] > 100 µM | GI50 [44] > 100 µM | GI50 [45] > 100 µM | GI50 [46] > 100 µM | GI50 [47] > 100 µM
